Values joined by “and” are separate entries in the source; they are usually repeats but may differ in a detail not shown here. Equal entries are not always repeated. Marks after values point to notes of the source that are not given here.
Key:
Assay type in all cases: cell-based, human
PACA2 cell lines = assay: DNA fragmentation assay, PACA2; details: for DNA fragmentation, Inhibition (%): PACA2; for DNA fragmentation (%) M ± SEM: PACA2, 24 hours of exposure, −ve control 8.3 ± 0.31; for DNA fragmentation, Change: PACA2, change versus −ve control
Description: (§1) The DNA fragmentation assay in breast and pancreatic cancer cell lines was performed in accordance with the method of Helmy et al., 2022 (ref. [15]) with some modifications. Briefly, after 24 hours of exposure of breast and pancreatic cancer cell lines to the tested chalcone compounds in different Petri dishes (60 × 15 mm, Greiner), the cells were trypsinized, suspended, homogenized in 1 ml of medium, and centrifuged (10 min at 800 rpm). Low-molecular-weight genomic DNA was extracted as described in Yawata et al., 1998.[52] Approximately 1 × 10^6 cells were plated and treated with the tested substances in various treatments. All the cells (including floating cells) were harvested by trypsinization and washed with Dulbecco's phosphate-buffered saline. Cells were lysed with the lysis buffer containing 10 mM Tris (pH 7.4), 150 mM NaCl, 5 mM EDTA, and 0.5% Triton X-100 for 30 minutes on ice. Lysates were vortexed and cleared by centrifugation at 10 000 g for 20 min. Fragmented DNA in the supernatant was extracted with an equal volume of a neutral phenol/chloroform/isoamyl alcohol mixture (25 : 24 : 1) and analyzed electrophoretically on 2% agarose gels containing 0.1 μg ml^−1 ethidium bromide.

CCND1 = assay: qPCR gene expression of CCND1 in PACA2 cells; details: treatment with IC50 conc., negative control = 1
Description: (§2) Total RNA was isolated from breast and pancreatic cancer cell lines according to the manufacturer's protocol using RNeasy Mini Kit (Qiagen) supplemented with the DNaseI (Qiagen) digestion step. To digest DNA residues, the isolated total RNA was treated with one unit of RQ1 RNAse-free DNAse (Invitrogen), re-suspended in DEPC-treated water, and quantified using a spectrophotometer at 260 nm. The purity of total RNA was assessed by the 260/280 nm ratio, which was between 1.8 and 2.1. Moreover, RNA integrity was assured by ethidium bromide-stain analysis of 28S and 18S bands by formaldehyde-containing agarose gel electrophoresis. Complete poly(A)+ RNA isolated from breast and pancreatic cell lines was reverse-transcribed into cDNA in a total volume of 20 μl using the RevertAidTM First Strand cDNA Synthesis Kit (Fermentas). […] Subsequently, the reaction tubes containing RT preparations were flash-cooled in an ice chamber until used for cDNA amplification using a quantitative real-time polymerase chain reaction (qRT-PCR).
(§3) Determination of the breast and pancreatic cell line cDNA copy number was carried out using the StepOne™ Real-Time PCR system from Applied Biosystems (Thermo Fisher Scientific). […] The relative quantification of the target to the reference was performed using the 2^−ΔΔCT method (Yang et al., 2017).[51]

MCF7 cell lines = assay: DNA fragmentation assay, MCF7; details: for DNA fragmentation, Inhibition (%): MCF7; for DNA fragmentation (%) M ± SEM: MCF7, 24 hours of exposure, −ve control 8.6 ± 0.36; for DNA fragmentation, Change: MCF7, change versus −ve control
Description: as §1

CDK4 = assay: qPCR gene expression of CDK4 in MCF7 cells; details: treatment with IC50 conc., negative control = 1
Description: as §2, §3

P53 = assay: qPCR gene expression of P53 in PACA2 cells; details: treatment with IC50 conc., negative control = 1
Description: as §2, §3

Paca2 = assay: Comet assay (DNA damage), pancreatic cancer cell line; details: for DNA damaged cells% (mean ± SEM): Paca2, comet assay, −ve 10.12 ± 0.85; for No. of cells, Class 0 / No. of cells, Class 1 / No. of cells, Class 2 / No. of cells, Class 3: Paca2, of 405 cells; for No. of cells, Class 0: class 0 = no tail; for No. of cells, Class 1: class 1 = tail length < diameter of nucleus; for No. of cells, Class 2: class 2 = tail length between 1× and 2× the diameter of nucleus; for No. of cells, Class 3: class 3 = tail length > 2× the diameter of nucleus
Description: Olive et al. (1990) used pancreatic and breast cancer cell lines to measure the DNA damage using the comet test.[53] Approximately 1.5 × 10^4 cells were imbedded in 0.75% low-gelling-temperature agarose after trypsin treatment to generate a single-cell suspension, which was then quickly pipetted onto a pre-coated microscope slide. Cell samples were lysed in 0.5% SDS, 30 mM EDTA, pH 8.0, for four hours at 50 °C. Samples were electrophoresed for 25 minutes at 0.6 V cm^−1 after being rinsed overnight at room temperature in Tris/borate/EDTA buffer, pH 8.0. Propidium iodide was then added for staining. A fluorescent microscope equipped with a CCD camera was used to observe the slides, and 150 unique comet photos from each sample were examined to determine the tail moment, DNA content, and percentage of DNA in the tail. To find the fraction of cells with DNA damage that resemble comets in each sample, around 100 cells were analyzed. Based on perceived comet tail length migration and relative proportion of DNA in the nucleus, the non-overlapping cells were randomly chosen and visually assigned a score on an arbitrary scale of 0–3. Class 0 = no detectable DNA damage and no tail; class 1 = tail with a length less than the nucleus diameter; class 2 = tail with length between 1× and 2× the nuclear diameter; and class 3 = tail longer than 2× the nucleus diameter.[54]

P21 = assay: qPCR gene expression of P21 in MCF7 cells; details: treatment with IC50 conc., negative control = 1
Description: as §2, §3

BID = assay: qPCR gene expression of BID in PACA2 cells; details: treatment with IC50 conc., negative control = 1
Description: as §2, §3

Bcl-2 = assay: qPCR gene expression of Bcl-2 in MCF7 cells; details: treatment with IC50 conc., negative control = 1
Description: as §2, §3

Structure (SMILES)	DNA fragmentation, Inhibition (%) (PACA2 cell lines)	DNA fragmentation (%) M ± SEM (PACA2 cell lines)	DNA fragmentation, Change (PACA2 cell lines)	Gene expression CCND1 (CCND1) [fold change/GAPDH]	DNA fragmentation, Inhibition (%) (MCF7 cell lines)	DNA fragmentation (%) M ± SEM (MCF7 cell lines)	DNA fragmentation, Change (MCF7 cell lines)	Gene expression CDK4 (CDK4) [fold change/GAPDH]	Gene expression P53 (P53) [fold change/GAPDH]	No. of cells, Class 0 (Paca2)	No. of cells, Class 1 (Paca2)	No. of cells, Class 2 (Paca2)	No. of cells, Class 3 (Paca2)	Gene expression P21 (P21) [fold change/GAPDH]	Gene expression BID (BID) [fold change/GAPDH]	Gene expression Bcl-2 (Bcl-2) [fold change/GAPDH]	also measured
COc1cccc2c1C(=O)c1c(O)c3c(c(O)c1C2=O)C[C@@](O)(C(=O)CO)C[C@@H]3O[C@H]1C[C@H](N)[C@H](O)[C@H](C)O1 [Doxorubicin, reference compound]	17.94	21.5 ± 0.46%	13.2	0.79	23.67	25.2 ± 0.65%	16.6	0.39	2.21	299	38	32	36	4.18	0.69	0.56	DNA fragmentation (%) M ± SEM (PACA2 cell lines; listed as PACA (+ve) control): 21.5 ± 0.46^a %; DNA fragmentation (%) M ± SEM (MCF7 cell lines; listed as MCF7 +ve control): 25.2 ± 0.65^a %; DNA damaged cells% (mean ± SEM) (Paca2; listed as Dox): 26.17 ± 1.38% and 26.17 ± 1.38^a %
Cc1nn(-c2ccccc2)c(C=CC(=O)c2c(-c3cccs3)nn(-c3ccc([N+](=O)[O-])cc3)c2C)c1Cl [Compound 7d, 3-(4-Chloro-3-methyl-1-phenyl-1H-pyrazol-5-yl)-1-(5-methyl-1-(4-nitrophenyl)-3-(thiophen-2-yl)-1H-pyrazol-4-yl)prop-2-en-1-one]	–	–	–	–	20.48	21.8 ± 0.94% and 21.8 ± 0.94^a %	13.2	0.43	–	–	–	–	–	3.95	–	0.64	–
Cc1c(C(=O)C=Cc2nn(-c3ccccc3)cc2-c2ccc([N+](=O)[O-])cc2)c(-c2cccs2)nn1-c1ccc([N+](=O)[O-])cc1 [Compound 9e, 1-(5-Methyl-1-(4-nitrophenyl)-3-(thiophen-2-yl)-1H-pyrazol-4-yl)-3-(4-(4-nitrophenyl)-1-phenyl-1H-pyrazol-3-yl)prop-2-en-1-one]	24.45	24.2 ± 0.57% and 24.2 ± 0.57^a %	15.9	0.64	–	–	–	–	3.89	290	35	37	43	–	0.48	–	DNA damaged cells% (mean ± SEM) (Paca2): 28.40 ± 1.04% and 28.40 ± 1.04^a %; No. of cells, Comets (Paca2; Paca2, of 405 cells analyzed): 115
